# Laboratory results: patent US20240052133A1, “CHEMICAL RECYLING OF PLASTICS USING IONIC LIQUIDS OR DEEP EUTECTIC SOLVENTS” (THE REGENTS OF THE UNIVERSITY OF CALIFORNIA, priority 2022, published 2024)
# Like-named read-outs stand apart in the source and are kept apart here.
# Assays:
# [1] = Hydrolytic depolymerization of PET using ILs in water
# Method: (§1) Most of them are conventional imidazolium-based, including the ones that contain halometallates. With the progress in the IL research, economic and biocompatible cholinium-based ILs have attracted high interest.
# (§2) […] […] The tube was immersed in a preheated oil bath at a desired temperature. Upon completion of the reaction, the tube was taken out from the oil bath and cooled to room temperature.
# The reaction residue was transferred to a 50 mL falcon tube, where solid residue was recovered through centrifugation. The solid fraction was washed with 5 mL deionized water three times before being dried in a lyophilizer (Labconco, Kansas City, MO). The liquid fraction was sampled for product analysis. The depolymerization and product yield are defined as follows:
# (§3) Depolymerization=Wsubstrate−W1Wsubstrate100%
# (§4) Yield=Wproduct/MproductWsubstrate/Msubstrate×100%
# (§5) Then 4 mM sulfuric acid was used as the mobile phase at a flow rate of 1.0 mL/min. The column oven temperature was maintained at 65° C.
# [2] = cited from earlier work
# [3] = test system: Pseudomonas putida KT2440; experiment: Pseudomonas putida KT2440 cell growth test (OD600) with different carbon sources; type: cell-based; details: for cell growth (cell concentration): synthetic solutions matching concentrations in the depolymerized polymers, versus 10 mM glucose control
# Method: [38, 39, 44, 45]. […] This is likely due to the relatively high [Ch][Lys] concentration, where the [Ch][Lys] concentration is 4 wt %.
# Due to the fact that the depolymerized PET/PLA comprises multiple carbon sources (e.g., TPA, LA, and [Ch][Lys]), it is essential to identify the major contributors for the cell growth. Two additional tests were performed. […] The depolymerized products were then diluted 20-fold to prepare the media for cell growth test. A media prepared with only [Ch][Lys] was used as the IL control.
# To validate this hypothesis, a second cell growth test was conducted using synthetic TPA and LA as the media. TPA, LA, and TPA/LA mixture were prepared to match the concentrations in the depolymerized polymers. […] It can be concluded that Pseudomonas putida KT2440 is capable of catabolizing LA from depolymerized PLA and [Ch][Lys] as carbon sources, but lacks a natural metabolic pathway to consume TPA. So far, no natural terephthalate degradation pathway has been reported in Pseudomonas putida KT2440. This is consistent with our findings that TPA cannot support cell growth of Pseudomonas putida KT2440. A recent study has shown the success in engineering Pseudomonas putida KT2440 to catabolize TPA for different fermentation products. This opens the door to efficiently utilizing both TPA and LA from the depolymerized PET/PLA.
# Pseudomonas putida KT2440 was inoculated as the seed culture at 30° C. overnight. The cell culture was spun down and washed with 3-(N-morpholino)propane sulfonic acid (MOPS) buffer for 5 times to remove the carbon sources. 1% cell resuspension was inoculated into 500 μL growth media in 48 well plates. The growth media included MOPS rich buffer (Teknova, #M2105) and 25 μg/mL Chloramphenicol, added with different carbon sources to support the cell growth (Table 4). Cell growths were monitored continuously at OD600 nm for 72-120 h in the plate reader (Biotek-Synergy, Y-H1) at 30° C., 570 rpm.
# [4] = pH of the reaction solution before and after IL catalyzed depolymerization; type: physicochemical; details: for pH before reaction: IL systems 10 wt % in water, alkaline water adjusted with NaOH; for pH after reaction, PET: after depolymerization reaction of PET; for pH after reaction, PLA: after depolymerization reaction of PLA
# Method: Hydrolytic depolymerization of PET and PLA involves chain scission of ester linkages, where a carboxyl end group is released. […] We hypothesized that the pH influenced by IL was the major driving force of PET and PLA depolymerization. To test the hypothesis, a set of control experiments were conducted using only water and alkaline water as the solvent. […] (with pH 11.8).
# [5] = Depolymerization of PET/PLA mixtures (1:1 mass ratio) using [Ch][Lys]; details: 160° C.
# Text: As discussed previously, the current waste management facilities will not completely eliminate the PLA contamination when sorting PET for recycling. […] Chemical recycling is an alternative to mechanical recycling in regard to dealing with PLA contaminants. […] Given its high catalytic activity, [Ch][Lys] was selected as the IL in the reaction. It should be emphasized that [Ch][Lys] is a favorable choice not only because of its high depolymerization efficiency but also because it is economic, biocompatible, less toxic, and environmentally friendly.
# The initial set of experiments was carried out at 160° C. for two hours. As shown in FIG. 4A and FIG. 4B, the depolymerization efficiency varied across different IL loadings. […] Meanwhile, the TPA yield turned to be negligible (1.5%) and the LA yield was merely 40.9%. The reasons are manifold.
# Although [Ch][Lys] is considered as cost-competitive compared to other conventional ILs, IL usage is often the major cost contributor in the process economics. In order to explore the way to reduce IL loading, a set of experiments was conducted by increasing the reaction time from 2 h to 6 h. Overall, reaction time extension improved both depolymerization and product yields at low IL loadings (FIG. 4A, FIG. 4B and FIG. 4C). […].
# The depolymerization reaction of polyesters were conducted in a 15 mL pressure tube (Ace Glass Inc., Vineland, NJ) at […] for one hour. […] The tube was immersed in a preheated oil bath at a desired temperature. Upon completion of the reaction, the tube was taken out from the oil bath and cooled to room temperature.
# (§6) The reaction residue was transferred to a 50 mL falcon tube, where solid residue was recovered through centrifugation. […] The liquid fraction was sampled for product analysis. The depolymerization and product yield are defined as follows:
# as §3, §4
# Terephthalic acid (TPA) and lactic acid (LA) were measured on a Thermo Scientific Ultimate 3000 HPLC (Waltham, MA, USA) equipped with a Bio-Rad Aminex HPX-87H column (300×7.8 mm, Hercules, CA, USA) and a Refractive Index (RI) detector. Then 4 mM sulfuric acid was used as the mobile phase at a flow rate of 1.0 mL/min. The column oven temperature was maintained at 65° C.
# [6] = Hydrolytic depolymerization of PLA using ILs in water
# Method: as §1, §2, §6, §3, §4, §5
# [7] = 90 wt % IL loading (no water), 2 h
# [8] = 130° C., 2 hours, 10% IL in water
# [9] = 160° C., 20% [Ch][Lys] loading, 6 hours
# [10] = 180° C., 2 hours, 10% IL in water
structure (smiles),measurement,setting,value
"C[N+](C)(C)CCO.O=C([O-])[C@H](O)[C@@H](O)[C@H](O)[C@H](O)CO [[Cholinium][Gluconate], cholinium gluconate]",TPA yield higher over [Ch][Lys],"[1]; another experiment, PET depolymerization",100%
"O=C(O)c1ccc(C(=O)O)cc1 [TPA, terephthalic acid]",solubility in water,[2]; acidic pH,insoluble
same,solubility in water,[2]; alkaline conditions,water soluble
same,cell growth (cell concentration),[3],No cell growth was observed
"CC(O)C(=O)O (stereo not drawn) [LA, lactic acid]",cell growth (cell concentration),[3],higher than glucose control
"C[N+](C)(C)CCO.C[N+](C)(C)CCO.C[N+](C)(C)CCO.O=P([O-])([O-])[O-] [[Ch]3[Phos], cholinium phosphate]",pH before reaction,[4],12.7
same,"pH after reaction, PET",[4],7.7
same,"pH after reaction, PLA",[4],8.1
"C[N+](C)(C)CCO.NCCCC[C@H](N)C(=O)[O-] [[Ch][Lys], cholinium lysinate]",pH before reaction,[4],11.8
same,"pH after reaction, PET",[4],11.0
same,"pH after reaction, PLA",[4],11.1
same,depolymerization efficiency of PET/PLA mixture,"[5]; 10 wt % IL loading, 2 h",50.8%
same,LA yield from PET/PLA mixture,"[5]; 45 wt % IL loading, 2 h",93.8%
same,TPA yield from PET/PLA mixture,"[5]; 45 wt % IL loading, 2 h",79.6%
same,LA yield from PET/PLA mixture,"[5]; 60 wt % IL loading, 2 h",53.1%
same,TPA yield from PET/PLA mixture,"[5]; 60 wt % IL loading, 2 h",77.2%
same,depolymerization efficiency of PET/PLA mixture,"[5]; 60 wt % IL loading, 2 h",99.5%
same,LA yield from PET/PLA mixture,[5]; [7],40.9%
same,TPA yield from PET/PLA mixture,[5]; [7],1.5%
same,depolymerization efficiency of PET/PLA mixture,[5]; [7],91.5%
same,"LA yield from PET/PLA mixture, change versus 2 h","[5]; 90 wt % IL loading, 6 h",decreased by half
same,TPA yield from PET/PLA mixture,"[5]; 90 wt % IL loading, 6 h",1.6%
same,depolymerization of PET/PLA mixture,"[5]; 90 wt % IL loading, 6 h",97.1%
same,LA yield (product yield from PLA),[6]; [8],39.3%
same,depolymerization efficiency of PLA,[6]; [8],40.2%
same,depolymerization of PLA,[6]; [9],Up to 100%
same,depolymerization of PET,[1]; [9],Up to 100%
same,TPA yield (product yield from PET),[1]; [10],44.5%
same,depolymerization efficiency of PET,[1]; [10],52.7%
same,cell growth,[3]; media prepared with only [Ch][Lys] (IL control),contributor to the cell growth
"CCn1cc[n+](C)c1.[Cl-] [[Emim]Cl, 1-ethyl-3-methylimidazolium chloride]",pH before reaction,[4],6.4
same,"pH after reaction, PET",[4],4.5
same,"pH after reaction, PLA",[4],3.2
"CC(=O)[O-].CCn1cc[n+](C)c1 [[Emim][Ac], 1-ethyl-3-methylimidazolium acetate]",pH before reaction,[4],7.1
same,"pH after reaction, PET",[4],6.8
same,"pH after reaction, PLA",[4],7.2
O [Water],pH before reaction,[4],7.6
same,"pH after reaction, PET",[4],3.4
same,"pH after reaction, PLA",[4],3.4
